# Source: patent publication US12036312B2, “Non-aqueous topical compositions comprising a halogenated salicylanilide” (priority 2016, dated 2024)
# Where two headings read alike, the source gives them in different places.
# How the values were obtained:
# [1] = test system: S. aureus; assay: Minimum inhibitory concentration (MIC) assay, Example 1, S. aureus strains; format: cell-based; details: Staphylococcus aureus
# From the text: The methicillin-resistant S. aureus (MRSA) 01 strain was used as the primary test microorganism as a representative bacteria commonly found in skin infections. This strain is a community-acquired MRSA clinical isolate of USA 300 type, from a skin abscess.
# Twenty-one other MRSA and methicillin-sensitive S. aureus strains, and 4 Streptococcus pyogenes strains, were also included in the study (Table 2). These covered fusidic acid- and mupirocin-resistant strains, these two types of resistance being of clinical relevance.
# Strains were conserved in Luria Bertani (LB) Broth (S. aureus) or Brain Heart Infusion (BHI) (S. pyogenes) supplemented with glycerol 15% (v/v) at −80° C., and reactivated by isolation on LB (S. aureus) or BHI (S. pyogenes) agar plates. Strains were cultivated in Mueller Hinton (MH) Broth-cation adjusted (S. aureus) supplemented with lysed horse blood 2.5% (v/v) (S. pyogenes). All strains were cultivated at 37° C., aerobically for S. aureus strains.
# Bacterial cultures were stopped in their exponential growth phase and plates were inoculated with the approximate concentration of 10^3 cells per well. Plates were incubated at 37° C. for 18 hours (S. aureus) or 24 hours (S. pyogenes). Optical density at a wavelength of 600 nm was measured at the end of the incubation time. […] Experiments were performed at least as triplicate biological replicates with all strains.
# [2] = test system: MRSA 01; assay: Time-kill assay; format: cell-based, Staphylococcus aureus; details: initial inoculum 7 log10 cfu/ml, niclosamide 4 μg/ml [MIC×10]
# Description: This assay was performed in 20 ml of medium. It included a negative control (medium without bacteria), a positive control (bacteria grown without niclosamide) and the assay (bacteria grown with niclosamide). […] This experiment was performed with the primary test microorganism indicated above.
# The overnight culture was stopped and OD600 was measured. Culture was then diluted in indicated medium to obtain an OD600 of 0.25 in order to have about 5×10^8 cfu/ml. Two hundred μl of this diluted culture were then added in all conditions except in the negative control. Initial bacterial concentration was about 5×10^6 cfu/ml. Tubes were incubated aerobically at 37° C. for 24 hours.
# Bacteria were enumerated before the incubation, after 30 minutes, 1, 2, 4, 8 and 24 hours of incubation by serial dilutions in NaCl 0.9% and plating on LB agar, with 2 plates per dilution. Plates were incubated at 37° C. and colonies enumerated after 24 hours.
compound,measurement,setting,value
"O=C(Nc1ccc([N+](=O)[O-])cc1Cl)c1cc(Cl)ccc1O [Niclosamide, niclosamide]",MIC,"[1]; MRSA, * tested against one strain: MRSA 01, read-out: Mic100 S. aureus",≤ 0.4 µg/mL
same,MIC,"[1]; MRSA, strain MRSA 01, read-out: MIC",0.4 µg/mL
same,MIC,"[1]; MRSA, strain MRSA 02, read-out: MIC",0.2 µg/mL
same,MIC,"[1]; MRSA, strain MRSA 03*, read-out: MIC",0.4 µg/mL
same,MIC,"[1]; MRSA, strain MRSA 04, read-out: MIC",0.4 µg/mL
same,MIC,"[1]; MRSA, strain MRSA 05, read-out: MIC",0.2 µg/mL
same,MIC,"[1]; MRSA, strain MRSA 06, read-out: MIC",0.4 µg/mL
same,MIC,"[1]; MRSA, strain MRSA 07, read-out: MIC",0.2 µg/mL
same,MIC,"[1]; MRSA, strain MRSA 08*, read-out: MIC",0.4 µg/mL
same,MIC,"[1]; MRSA, strain MRSA 09, read-out: MIC",0.2 µg/mL
same,MIC,"[1]; MRSA, strain MRSA 10, read-out: MIC",0.4 µg/mL
same,MIC,"[1]; MRSA, strain MRSA 11, read-out: MIC",0.1 µg/mL
same,MIC,"[1]; MRSA, strain MRSA 12*, read-out: MIC",0.4 µg/mL
same,MIC,"[1]; MRSA, strain MRSA 13*, read-out: MIC",0.4 µg/mL
same,MIC,"[1]; MRSA, strain MRSA 14*, read-out: MIC",0.4 µg/mL
same,MIC,"[1]; MRSA, strain MRSA 15*, read-out: MIC",0.2 µg/mL
same,MIC,"[1]; MRSA, strain MRSA 16*, read-out: MIC",0.2 µg/mL
same,MIC,"[1]; MRSA, strain MRSA 17*, read-out: MIC",0.2 µg/mL
same,MIC,"[1]; MSSA, strain MSSA 01*, read-out: MIC",0.4 µg/mL
same,MIC,"[1]; MSSA, strain MSSA 02*, read-out: MIC",0.4 µg/mL
same,MIC,"[1]; NEWMAN, strain Newman, read-out: MIC",0.2 µg/mL
same,MIC,"[1]; strain EEFIC 01*, read-out: MIC",0.4 µg/mL
same,MIC,"[1]; strain EEFIC 02*, read-out: MIC",0.2 µg/mL
same,bactericidal or bacteriostatic effect,[2],bacteriostatic effect
